{"source": "patent US8168233B2", "about": "(Amylin Pharmaceuticals, Inc., priority 2002, dated 2012)", "key": {"soleus muscle": {"tested_on": "soleus muscle", "details": "read-out: EC50 in the soleus muscle assay; typical range of amylin preparations; […] insulin", "description": "The tendons of the muscles are ligated before attachment to stainless steel clips. […] Flasks are sealed and gassed continuously with O2 and CO2 in the ratio 19:1 (v/v). After pre-incubation of muscles in this medium for 30 min at 37° C. in an oscillating water bath, the muscles strips are transferred to similar vials containing identical medium (except pyruvate) with added [U-^14C] glucose (0.5 μCi/ml) and insulin (100 μU/ml). […] At the end of the incubation period, muscles are blotted and rapidly frozen in liquid N2. The concentration of lactate in the incubation medium can be determined spectrophotometrically and [U-^14C]glucose incorporation in glycogen measured.\nMale Harlan Sprague-Dawley rats of approximately 200 g mass were used in order to maintain mass of the split soleus muscle less than 40 mg. The animals were fasted for 4 hours prior to sacrifice by decapitation. The skin was stripped from the lower limb which was then pinned out on corkboard. The tendo achilles was cut just above os calcis and m. gastrocnemius reflected out from the posterior aspect of the tibia. […]\n^14C-glycogen determination was performed in a 7 mL scintillation vial. […] The remaining glycogen was redissolved in 1 mL water and 4 mL scintillation fluid and counted for ^14C. […]"}, "[1]": {"tested_on": "caerulein-induced pancreatitis in ICR(CD-1) male mice", "experiment": "Effect of amylin on caerulein-induced pancreatitis (plasma amylase)", "format": "in vivo", "details": "amylin at levels as low as 0.01 μg injected at t=−5 min; plasma at 9 hours after first caerulein injection", "experimental": "Male ICR mice, weighing approximately 20 g, were fasted overnight and throughout the experiment, but were allowed access to water ad libitum. […] At t=0, 0.01 μg/kg of caerulein in all but the normal group of mice. The dosing regimen for caerulein was repeated 3 times at 2 hour intervals. At t=9 hours, i.e., 9 hours after the first caerulein injection, the mice were bleed (orbital sinus) and the plasma assayed for amylase (Amylase 3 assay kit, Sigma Diagnostics Catalog #577-3, Sigma Diagnostics, St. Louis, Mo., USA)."}, "rat pancreas": {"tested_on": "rat pancreas", "experiment": "Inhibition of CCK-8 stimulated lipase and amylase secretion in rat pancreas (pancreatic juice collection in anesthetized rats)", "format": "in vivo", "details": "for Amylase, % from CCK-8 stimulated / Lipase, % from CCK-8 stimulated / Pancreatic flow, % from CCK-8 stimulated: decrease versus CCK-8 alone", "experimental": "Tracheotomy and cannulation of the right femoral artery were performed and body temperature was controlled with a thermoregulator (Model 73A, YSI, Yellow Springs, Ohio, USA) that switched a heated operating table. The femoral arterial line, used for blood sampling, was perfused with heparinized saline (2 u/ml) and connected to a pressure transducer for blood pressure recording (Spectramed P23XL transducer, Model 13-4615-58 amplifier, Gould, Cleveland, Ohio, USA). Through a midline incision two polyethylene cannulae were inserted into the common bile-pancreatic duct at a point about 0.5 cm above where the duct enters the pancreas. The first cannula was inserted up toward the liver to collect bile. The other end of this cannula was placed into the duodenum through a small incision in the duodenum. Thus, bile flowed directly from the liver to the small intestine, being shunted away from the pancreas completely.\nA second polyethylene cannula was inserted into the common bile-pancreatic duct near the first but in the opposite direction to collect pancreatic juice. The other end of the pancreatic duct was tied off with a suture just at the point where it enters the duodenum, forcing any pancreatic juice produced to flow through the second cannula for collection. Pancreatic juice was collected every 15 min from −30 to 90 min. […] The volume of juice was measured and aliquots taken for enzymes determination. Amylase and lipase, which are secreted in pancreatic juice in an active form, were tested using diagnostic kits (Lipase-PS assay kit, Sigma Diagnostics Catalog #805-A and Amylase 3 assay kit, Sigma Diagnostics Catalog #577-3, Sigma Diagnostics, St. Louis, Mo., USA). To perform both assays, pancreatic juice was diluted with saline in proportion 1:2000. Activity of enzymes was expressed in units per 15 min (activity in pancreatic juice collected every 15 min)."}, "[2]": {"tested_on": "pancreatic enzyme secretion", "details": "rat model, doses resulting in physiological plasma concentrations; cited from earlier work"}, "[3]": {"details": "human, in vivo; cited from earlier work"}, "[4]": {"experiment": "Amylin activity in vivo in treated test animals (hyperlactemia followed by hyperglycemia)", "details": "e.g., provoking marked hyperlactemia followed by hyperglycemia"}, "[5]": {"details": "Amylin 1 μg s.c. alone, no CCK-8"}, "[6]": {"details": "Amylin 10 μg s.c. alone, no CCK-8"}, "[7]": {"details": "CCK-8 1 μg and Amylin 0.1 μg s.c."}, "[8]": {"details": "CCK-8 1 μg and Amylin 0.3 μg s.c."}, "[9]": {"details": "CCK-8 1 μg and Amylin 1.0 μg s.c."}, "[10]": {"details": "CCK-8 1 μg and Amylin 10.0 μg s.c."}, "[11]": {"details": "s.c. amylin with CCK-8 1 μg, dose-dependent"}, "[12]": {"details": "±0.09 log units, first ED50 sentence of b123"}, "[13]": {"details": "±0.09 log units, second ED50 sentence of b123"}}, "note": "Where no end group is shown, it is not given here.", "data": [{"compound": "CC[C@H](C)[C@H](NC(=O)[C@H](C)NC(=O)CNC(=O)[C@H](Cc1ccccc1)NC(=O)[C@H](CC(N)=O)NC(=O)[C@H](CC(N)=O)NC(=O)[C@H](CO)NC(=O)[C@H](CO)NC(=O)[C@H](Cc1c[nH]cn1)NC(=O)[C@@H](NC(=O)[C@H](CC(C)C)NC(=O)[C@H](Cc1ccccc1)NC(=O)[C@H](CC(N)=O)NC(=O)[C@H](C)NC(=O)[C@H](CC(C)C)NC(=O)[C@H](CCCNC(=N)N)NC(=O)[C@H](CCC(N)=O)NC(=O)[C@@H](NC(=O)[C@H](C)NC(=O)[C@@H]1CSSC[C@H](NC(=O)[C@@H](N)CCCCN)C(=O)N[C@@H](CC(N)=O)C(=O)N[C@@H]([C@@H](C)O)C(=O)N[C@@H](C)C(=O)N[C@@H]([C@@H](C)O)C(=O)N1)[C@@H](C)O)C(C)C)C(=O)N[C@@H](CC(C)C)C(=O)N[C@@H](CO)C(=O)N[C@@H](CO)C(=O)N[C@H](C(=O)N[C@@H](CC(N)=O)C(=O)N[C@H](C(=O)NCC(=O)N[C@@H](CO)C(=O)N[C@@H](CC(N)=O)C(=O)N[C@H](C(=O)N[C@@H](Cc1ccc(O)cc1)C(N)=O)[C@@H](C)O)C(C)C)[C@@H](C)O", "note": "[human amylin]", "values": [{"measurement": "EC50", "setting": "soleus muscle", "value": "1 to 10", "unit": "nM"}]}, {"compound": "Amylin: rat amylin (AR905-80) in Example II; amylin (AC128, Amylin Pharmaceuticals, Inc.) in Example I; 37 amino acid peptide hormone (KCNTATCATQRLANFLVHSSNNFGAILSSTNVGSNTY)", "values": [{"measurement": "reduction of elevated plasma amylase produced by caerulein", "setting": "[1]", "value": "effectively reduce the elevated levels of plasma amylase"}, {"measurement": "Amylase", "setting": "rat pancreas; [5]", "value": "80.21 ± 35.71", "unit": "U/45 min"}, {"measurement": "Lipase", "setting": "rat pancreas; [5]", "value": "149.51 ± 86.79", "unit": "U/45 min"}, {"measurement": "Pancreatic flow", "setting": "rat pancreas; [5]", "value": "30 ± 6", "unit": "μl/45 min"}, {"measurement": "Amylase", "setting": "rat pancreas; [6]", "value": "61.95 ± 24.51", "unit": "U/45 min"}, {"measurement": "Lipase", "setting": "rat pancreas; [6]", "value": "64.67 ± 21.59", "unit": "U/45 min"}, {"measurement": "Pancreatic flow", "setting": "rat pancreas; [6]", "value": "13 ± 4", "unit": "μl/45 min"}, {"measurement": "Amylase", "setting": "rat pancreas; [7]", "value": "340.98 ± 40.91", "unit": "U/45 min"}, {"measurement": "Lipase", "setting": "rat pancreas; [7]", "value": "472.82 ± 58.67", "unit": "U/45 min"}, {"measurement": "Pancreatic flow", "setting": "rat pancreas; [7]", "value": "78 ± 8", "unit": "μl/45 min"}, {"measurement": "Amylase, % from CCK-8 stimulated", "setting": "rat pancreas; [7]", "value": 25.83, "unit": "%"}, {"measurement": "Lipase, % from CCK-8 stimulated", "setting": "rat pancreas; [7]", "value": 34.65, "unit": "%"}, {"measurement": "Pancreatic flow, % from CCK-8 stimulated", "setting": "rat pancreas; [7]", "value": 21.21, "unit": "%"}, {"measurement": "Amylase", "setting": "rat pancreas; [8]", "value": "271.73 ± 48.38", "unit": "U/45 min"}, {"measurement": "Lipase", "setting": "rat pancreas; [8]", "value": "309.30 ± 74.31", "unit": "U/45 min"}, {"measurement": "Pancreatic flow", "setting": "rat pancreas; [8]", "value": "67 ± 6", "unit": "μl/45 min"}, {"measurement": "Amylase, % from CCK-8 stimulated", "setting": "rat pancreas; [8]", "value": 40.90, "unit": "%"}, {"measurement": "Lipase, % from CCK-8 stimulated", "setting": "rat pancreas; [8]", "value": 57.25, "unit": "%"}, {"measurement": "Pancreatic flow, % from CCK-8 stimulated", "setting": "rat pancreas; [8]", "value": 32.32, "unit": "%"}, {"measurement": "Amylase", "setting": "rat pancreas; [9]", "value": "193.93 ± 34.40", "unit": "U/45 min"}, {"measurement": "Lipase", "setting": "rat pancreas; [9]", "value": "232.41 ± 58.01", "unit": "U/45 min"}, {"measurement": "Pancreatic flow", "setting": "rat pancreas; [9]", "value": "58 ± 12", "unit": "μl/45 min"}, {"measurement": "Amylase, % from CCK-8 stimulated", "setting": "rat pancreas; [9]", "value": 57.32, "unit": "%"}, {"measurement": "Lipase, % from CCK-8 stimulated", "setting": "rat pancreas; [9]", "value": 67.87, "unit": "%"}, {"measurement": "Pancreatic flow, % from CCK-8 stimulated", "setting": "rat pancreas; [9]", "value": 41.41, "unit": "%"}, {"measurement": "Amylase", "setting": "rat pancreas; [10]", "value": "353.68 ± 78.85", "unit": "U/45 min"}, {"measurement": "Lipase", "setting": "rat pancreas; [10]", "value": "370.65 ± 85.67", "unit": "U/45 min"}, {"measurement": "Pancreatic flow", "setting": "rat pancreas; [10]", "value": "90 ± 13", "unit": "μl/45 min"}, {"measurement": "Amylase, % from CCK-8 stimulated", "setting": "rat pancreas; [10]", "value": 23.07, "unit": "%"}, {"measurement": "Lipase, % from CCK-8 stimulated", "setting": "rat pancreas; [10]", "value": 48.77, "unit": "%"}, {"measurement": "Pancreatic flow, % from CCK-8 stimulated", "setting": "rat pancreas; [10]", "value": 9.09, "unit": "%"}, {"measurement": "inhibition of cholecystokinin stimulated pancreatic amylase activity (maximum)", "setting": "rat pancreas; [11]", "value": "up to 67.9%"}, {"measurement": "inhibition of secretion of cholecystokinin stimulated pancreatic lipase (maximum)", "setting": "rat pancreas; [11]", "value": "up to 57.3%"}, {"measurement": "ED50 for suppression of pancreatic amylase activity", "setting": "rat pancreas; [12]", "value": 129, "unit": "pmol/kg"}, {"measurement": "ED50 for suppression of pancreatic lipase activity", "setting": "rat pancreas; [12]", "value": 129, "unit": "pmol/kg"}, {"measurement": "ED50 for suppression of CCK-8 stimulated pancreatic amylase activity", "setting": "rat pancreas; [13]", "value": 123, "unit": "pmol/kg"}, {"measurement": "ED50 for suppression of CCK-8 stimulated pancreatic lipase activity", "setting": "rat pancreas; [13]", "value": 123, "unit": "pmol/kg"}, {"measurement": "effect on basal pancreatic enzyme secretion", "setting": "[2]", "value": "no effect"}, {"measurement": "tolerability", "setting": "[3]", "value": "well tolerated"}]}, {"compound": "^28Pro-h-amylin (KCNTATCATQRLANFLVHSSNNFGAILPSTNVGSNTY)", "values": [{"measurement": "amylin activity in vivo", "setting": "[4]", "value": "show amylin activity in vivo"}]}, {"compound": "cholecystokinin octapeptide [CCK-8, reference compound]", "values": [{"measurement": "Amylase", "setting": "rat pancreas; CCK-8 1 μg s.c. alone", "value": "459.76 ± 52.49", "unit": "U/45 min"}, {"measurement": "Lipase", "setting": "rat pancreas; CCK-8 1 μg s.c. alone", "value": "723.56 ± 100.56", "unit": "U/45 min"}, {"measurement": "Pancreatic flow", "setting": "rat pancreas; CCK-8 1 μg s.c. alone", "value": "99 ± 13", "unit": "μl/45 min"}]}, {"compound": "des-^1Lys-h-amylin (CNTATCATQRLANFLVHSSNNFGAILSSTNVGSNTY; ends and bridges not checked; cysteine pairing not given here; UniProt P10997 35-70, looked up, fragment)", "values": [{"measurement": "amylin activity in vivo", "setting": "[4]", "value": "show amylin activity in vivo"}]}, {"compound": "des-^1Lys^18Arg^25,28Pro-h-amylin", "values": [{"measurement": "amylin activity in vivo", "setting": "[4]", "value": "show amylin activity in vivo"}]}]}
